Reference: ChEMBL document CHEMBL1208684 (Eur J Med Chem, 2010)
Calls of active or inactive are those of the source. The calls are words filed in the database; no cut-off is given here.

Tests used:
[1] = test system: K562; experiment: Antiproliferative activity against human K562 cells after 48 hrs; assay type: functional, cell-based; conditions: K562, 48 h
[2] = target: Tubulin (Sus scrofa, UniProt P02554+P02550); experiment: Inhibition of pig brain tubulin polymerization after 30 mins by turbidimetry
[3] = Antiproliferative activity against human KB/HeLa cells after 48 hrs by XTT assay; assay type: functional, cell-based
[4] = test system: RKO; experiment: Antiproliferative activity against human RKO cells expressing p27Kip1 after 48 hrs by XTT assay; assay type: functional, cell-based
[5] = Cell cycle arrest in human KB/HeLa cells assessed as accumulation at G2/M phase after 24 hrs using propidium iodide staining by FACS analysis; assay type: functional, cell-based
[6] = test system: SK-OV-3; experiment: Antiproliferative activity against human SKOV3 cells after 48 hrs by XTT assay; assay type: functional, cell-based; conditions: SK-OV-3, 48 h
[7] = test system: SF-268; experiment: Antiproliferative activity against human SF268 cells after 48 hrs by XTT assay; assay type: functional, cell-based; conditions: SF-268, 48 h
[8] = test system: NCI-H460; experiment: Antiproliferative activity against human NCI-H460 cells after 48 hrs by XTT assay; assay type: functional, cell-based; conditions: NCI-H460, 48 h
[9] = test system: RKO; experiment: Antiproliferative activity against human RKO cells after 48 hrs by XTT assay; assay type: functional, cell-based
[10] = Antiproliferative activity against rat LT12 cells after 48 hrs by XTT assay; assay type: functional, cell-based; conditions: LT12, 48 h
[11] = Antiproliferative activity against multi drug-resistant rat LT12 cells after 48 hrs by XTT assay; assay type: functional, cell-based; conditions: LT12, 48 h
[12] = test system: L1210; experiment: Antiproliferative activity against mouse L1210 cells after 48 hrs by XTT assay; assay type: functional, cell-based; conditions: L1210, 48 h
[13] = test system: L1210; experiment: Antiproliferative activity against vincristine-resistant mouse L1210 cells after 48 hrs by XTT assay; assay type: functional, cell-based; conditions: L1210, 48 h
[14] = test system: P388; experiment: Antiproliferative activity against mouse P388 cells after 48 hrs by XTT assay; assay type: functional, cell-based; conditions: P388, 48 h
[15] = test system: P388; experiment: Antiproliferative activity against adriamycin-resistant mouse P388 cells after 48 hrs by XTT assay; assay type: functional, cell-based; conditions: P388, 48 h
[16] = target: Tubulin (Sus scrofa) (UniProt P02554+P02550); experiment: Ratio of compound IC50 to colchicine IC50 for inhibition of pig brain tubulin polymerization
[17] = Displacement of [3H]colchicine from biotin-labeled tubulin after 2 hrs by scintillation proximity assay
[18] = Displacement of [3H]paclitaxel from biotin-labeled tubulin after 2 hrs by scintillation proximity assay
[19] = test system: PtK2; experiment: Disruption of microtubule network in rat kangaroo PtK2 cells at 5 uM after 1 hr by immunofluorescence microscopic analysis; assay type: functional, cell-based; conditions: Potorous tridactylus

Sequence of Tubulin (Sus scrofa) (P02550 whole entry, looked up): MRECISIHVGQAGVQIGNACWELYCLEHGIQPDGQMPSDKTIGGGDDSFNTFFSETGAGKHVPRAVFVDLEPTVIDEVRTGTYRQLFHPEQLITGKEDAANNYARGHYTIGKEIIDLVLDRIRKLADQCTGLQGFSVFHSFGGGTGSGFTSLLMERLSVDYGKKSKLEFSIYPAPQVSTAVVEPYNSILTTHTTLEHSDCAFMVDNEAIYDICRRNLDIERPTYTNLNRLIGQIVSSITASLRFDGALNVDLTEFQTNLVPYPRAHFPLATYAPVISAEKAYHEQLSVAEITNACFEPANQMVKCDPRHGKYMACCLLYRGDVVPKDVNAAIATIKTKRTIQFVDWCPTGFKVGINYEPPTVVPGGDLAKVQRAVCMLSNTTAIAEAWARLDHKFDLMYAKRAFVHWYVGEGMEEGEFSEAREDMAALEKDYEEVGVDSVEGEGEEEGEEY
Sequence of Tubulin (Sus scrofa) (P02554 whole entry, looked up): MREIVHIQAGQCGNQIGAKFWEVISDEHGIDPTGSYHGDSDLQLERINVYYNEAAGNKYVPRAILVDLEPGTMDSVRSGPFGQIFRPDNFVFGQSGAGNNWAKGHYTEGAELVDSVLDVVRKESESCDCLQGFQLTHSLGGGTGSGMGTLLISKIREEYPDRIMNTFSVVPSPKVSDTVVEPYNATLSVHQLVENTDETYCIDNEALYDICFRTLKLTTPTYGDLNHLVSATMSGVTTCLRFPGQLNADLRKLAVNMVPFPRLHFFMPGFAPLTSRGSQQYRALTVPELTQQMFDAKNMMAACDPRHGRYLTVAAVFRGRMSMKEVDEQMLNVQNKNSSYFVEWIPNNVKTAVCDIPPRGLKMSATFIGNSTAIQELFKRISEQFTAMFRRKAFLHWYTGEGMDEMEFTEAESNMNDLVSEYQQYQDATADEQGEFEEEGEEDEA

Row | SMILES | IC50 [1] [µM] | IC50 [2] [µM] | other results
1 | COc1ccc(C(=O)C=C2c3cccc(Cl)c3C(=O)c3c(Cl)cccc32)cc1 | 0.93 | 0.73 | –
2 | COc1cc(C=C2c3cccc(O)c3C(=O)c3c(O)cccc32)cc(OC)c1OC | 2.6 | > 10 | –
3 | COc1ccc(C=C2c3cccc(OC)c3C(=O)c3c(OC)cccc32)cc1 | 1.42 | > 2 | –
4 | COc1cccc(C=C2c3cccc(Cl)c3C(=O)c3c(Cl)cccc32)c1O | 5 | > 2 | –
5 | O=C1c2c(O)cccc2C(=Cc2ccc(O)cc2)c2cccc(O)c21 | 2 | – | –
6 | O=C1c2cccc(Cl)c2/C(=C/c2ccccc2)c2cccc(Cl)c21 | > 30 | – | –
7 | O=C1c2c(O)cccc2C(=Cc2ccc(O)c(O)c2)c2cccc(O)c21 | 2.6 | – | –
8 | O=C(/C=C1\c2cccc(Cl)c2C(=O)c2cccc(Cl)c21)c1ccc([N+](=O)[O-])cc1 | 1.9 | – | –
9 | COc1ccc(/C=C2/c3cccc(Cl)c3C(=O)c3cccc(Cl)c32)c(OC)c1OC | 17.3 | – | –
10 | O=C1c2cccc(Cl)c2C(Cc2ccc(Cl)cc2)c2cccc(Cl)c21 (configuration not stated) | > 15 | – | –
11 | COc1cc2c(c(OC)c1OC)-c1ccc(OC)c(=O)cc1[C@@H](NC(C)=O)CC2 [COLCHICINE] | – | – | IC50 [3]: 0.03 µM; IC50 [4]: > 10 µM; EC50 [5]: 0.014 µM
12 | CC(=O)Oc1ccc(C(=O)/C=C2\c3cccc(Cl)c3C(=O)c3cccc(Cl)c32)cc1 | 3.4 | 0.41 | –
13 | COc1ccc(C(=O)/C=C2\c3cccc(Cl)c3C(=O)c3cccc(Cl)c32)cc1OC | 0.24 | 0.69 | –
14 | COc1ccc(C=C2c3cccc(Cl)c3C(=O)c3c(Cl)cccc32)c(OC)c1O | 0.1 | 0.36 | IC50 [3]: 0.13 µM; IC50 [6]: 0.16 µM; IC50 [7]: 0.14 µM; IC50 [8]: 0.17 µM; IC50 [9]: 0.16 µM; IC50 [10]: 0.37 µM; IC50 [4]: > 9 µM; IC50 [11]: 0.17 µM; IC50 [12]: 0.35 µM; IC50 [13]: 0.23 µM; IC50 [14]: 0.32 µM; IC50 [15]: 0.46 µM; EC50 [5]: 0.111 µM; Ratio IC50 [16]: 4; IC50 [17]: 1.17 µM; Activity [18]: inactive
15 | COc1ccc(C=C2c3cccc(Cl)c3C(=O)c3c(Cl)cccc32)cc1 | 0.61 | 0.87 | –
16 | COc1ccc(C=C2c3cccc(O)c3C(=O)c3c(O)cccc32)cc1O | 1.5 | 1.93 | –
17 | COc1cc(C(=O)/C=C2\c3cccc(Cl)c3C(=O)c3cccc(Cl)c32)cc(OC)c1OC | 0.23 | 0.36 | Activity [19]: Active
18 | COc1cc(C=C2c3cccc(Cl)c3C(=O)c3c(Cl)cccc32)cc(OC)c1OC | 10 | > 10 | –
19 | O=C(/C=C1\c2cccc(Cl)c2C(=O)c2cccc(Cl)c21)c1ccc(Cl)cc1 | 1.6 | – | –
20 | COc1cc(C=C2c3cccc(Cl)c3C(=O)c3c(Cl)cccc32)ccc1O | 5 | 6.8 | –
21 | COc1ccc(C=C2c3cccc(O)c3C(=O)c3c(O)cccc32)cc1OC | 2 | > 10 | –
22 | COc1cc(C=C2c3cccc(Cl)c3C(=O)c3c(Cl)cccc32)cc(OC)c1O | 2 | 1.66 | –
23 | COc1cc(/C=C2/c3cccc(Cl)c3C(=O)c3cccc(Cl)c32)ccc1O | 0.27 | 0.38 | –
24 | COc1ccc(C(=O)/C=C2\c3cccc(Cl)c3C(=O)c3cccc(Cl)c32)cc1 | 0.22 | 0.53 | –
25 | COc1cccc(C(=O)/C=C2\c3cccc(Cl)c3C(=O)c3cccc(Cl)c32)c1 | 0.25 | 0.69 | –
26 | COc1ccc(C=C2c3cccc(O)c3C(=O)c3c(O)cccc32)cc1 | 2 | 4 | –

Row | SMILES | IC50 [1] [µM] | IC50 [2] [µM] | other results
27 | O=C1c2c(O)cccc2C(=Cc2ccccc2)c2cccc(O)c21 | 2.3 | > 10 | –
28 | COc1ccc(CC2c3cccc(Cl)c3C(=O)c3c(Cl)cccc32)cc1 | > 80 | > 2 | –
29 | O=C(/C=C1\c2cccc(Cl)c2C(=O)c2cccc(Cl)c21)c1ccccc1 | 0.29 | 1.7 | –
30 | COc1cc(C(=O)C=C2c3cccc(Cl)c3C(=O)c3c(Cl)cccc32)cc(OC)c1OC | 0.72 | 1.62 | –
31 | COc1ccc(/C=C2\c3cccc(Cl)c3C(=O)c3cccc(Cl)c32)cc1 | 1.4 | 0.69 | –
32 | CC[C@]1(O)C[C@H]2CN(CCc3c([nH]c4ccccc34)[C@@](C(=O)OC)(c3cc4c(cc3OC)N(C=O)[C@H]3[C@@](O)(C(=O)OC)[C@H](OC(C)=O)[C@]5(CC)C=CCN6CC[C@]43[C@@H]65)C2)C1 [VINCRISTINE] | – | – | EC50 [5]: 0.0024 µM
33 | O=C1c2cccc(Cl)c2C(Cc2ccccc2)c2cccc(Cl)c21 (configuration not stated) | > 15 | – | –
34 | COc1ccc(CC2c3cccc(Cl)c3C(=O)c3cccc(Cl)c32)cc1O (configuration not stated) | 5.1 | – | –
35 | CC[C@]1(O)C[C@@H]2CN(CCc3c([nH]c4ccccc34)[C@@](C(=O)OC)(c3cc4c(cc3OC)N(C)[C@H]3[C@@](O)(C(N)=O)[C@H](O)[C@]5(CC)C=CCN6CC[C@]43[C@@H]65)C2)C1 [VINDESINE] | – | – | IC50 [10]: 0.001 µM; IC50 [11]: 0.26 µM; IC50 [13]: > 5 µM
36 | O=C1c2cccc(Cl)c2C(Cc2ccc([N+](=O)[O-])cc2)c2cccc(Cl)c21 (configuration not stated) | > 15 | – | –
37 | COc1cc(CC2c3cccc(Cl)c3C(=O)c3cccc(Cl)c32)cc(OC)c1OC (configuration not stated) | > 15 | – | –
38 | O=C(/C=C1\c2cccc(Cl)c2C(=O)c2cccc(Cl)c21)c1ccc(Br)cc1 | 1.7 | 0.51 | –
39 | O=C1c2c(O)cccc2C(=Cc2ccc(C(F)(F)F)cc2)c2cccc(O)c21 | 1.7 | – | –
40 | COc1ccc(/C=C2\c3cccc(Cl)c3C(=O)c3cccc(Cl)c32)cc1O | 0.21 | 0.42 | –
41 | COc1cccc(CC2c3cccc(Cl)c3C(=O)c3cccc(Cl)c32)c1 (configuration not stated) | > 15 | – | –
42 | COc1ccc(CC2c3cccc(Cl)c3C(=O)c3cccc(Cl)c32)cc1 (configuration not stated) | 13 | – | –
43 | COc1ccc(CC2c3cccc(Cl)c3C(=O)c3c(Cl)cccc32)cc1O | 1.6 | 1.2 | –
44 | O=C1c2c(O)cccc2C(=Cc2ccc([N+](=O)[O-])cc2)c2cccc(O)c21 | 1.7 | > 10 | –
45 | COC(=O)Nc1nc2cc(C(=O)c3cccs3)ccc2[nH]1 [NOCODAZOLE] | – | – | IC50 [3]: 0.14 µM; IC50 [10]: 0.04 µM; IC50 [4]: > 10 µM; IC50 [11]: 0.07 µM; EC50 [5]: 0.091 µM
46 | O=C1c2cccc(Cl)c2/C(=C\c2ccccc2)c2cccc(Cl)c21 | > 30 | – | –
47 | COc1ccc(/C=C2/c3cccc(Cl)c3C(=O)c3cccc(Cl)c32)cc1 | 1.3 | 0.52 | –
48 | COc1ccc(C=C2c3cccc(Cl)c3C(=O)c3c(Cl)cccc32)cc1O | 0.25 | 0.36 | IC50 [3]: 0.14 µM; IC50 [6]: 0.14 µM; IC50 [7]: 0.17 µM; IC50 [8]: 0.21 µM; IC50 [9]: 0.16 µM; IC50 [10]: 0.63 µM; IC50 [4]: > 9 µM; IC50 [11]: 0.29 µM; IC50 [12]: 0.51 µM; IC50 [13]: 0.3 µM; IC50 [14]: 0.39 µM; IC50 [15]: 0.64 µM; EC50 [5]: 0.118 µM; Ratio IC50 [16]: 4; IC50 [17]: 1.38 µM; Activity [18]: inactive
49 | COc1ccc(C=C2c3cccc(Cl)c3C(=O)c3c(Cl)cccc32)c(O)c1 | 0.5 | 1.6 | –
50 | CC(=O)O[C@H]1C(=O)[C@@]2(C)[C@H]([C@H](OC(=O)c3ccccc3)[C@]3(O)C[C@H](OC(=O)[C@H](O)[C@@H](NC(=O)c4ccccc4)c4ccccc4)C(C)=C1C3(C)C)[C@]1(OC(C)=O)CO[C@@H]1C[C@@H]2O [PACLITAXEL] | – | – | IC50 [3]: 0.01 µM; IC50 [4]: > 3 µM; IC50 [11]: 0.4 µM; IC50 [13]: > 5 µM; IC50 [15]: > 5 µM; EC50 [5]: 0.049 µM
51 | COc1cc(/C=C2\c3cccc(Cl)c3C(=O)c3cccc(Cl)c32)cc(OC)c1OC | 18 | – | –
